# In PubChem BioAssay (NCI):
#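 Assay format: 96-well plates, 48-hour exposure. TGI denotes the concentration required for complete inhibition of growth.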
# Key:
# Assay in all cases: NCI anticancer screen, dose series, 48 h
# HT29 colon = tested on: HT29 colon
# SK-MEL-28 melanoma = tested on: SK-MEL-28 melanoma
# KM20L2 colon = tested on: KM20L2 colon
# IGROV1 ovarian = tested on: IGROV1 ovarian
# HOP-18 NSCLC = tested on: HOP-18 NSCLC
# MALME-3M melanoma = tested on: MALME-3M melanoma
# U251 CNS = tested on: U251 CNS
# RXF 393 renal = tested on: RXF 393 renal
# NCI-H460 lung = tested on: NCI-H460 lung
# NCI-H226 lung = tested on: NCI-H226 lung
# SNB-19 CNS = tested on: SNB-19 CNS
# SF-268 CNS = tested on: SF-268 CNS
# UACC-62 melanoma = tested on: UACC-62 melanoma
# UO-31 renal = tested on: UO-31 renal
# HCC-2998 colon = tested on: HCC-2998 colon
# NCI-H522 lung = tested on: NCI-H522 lung
# OVCAR-3 ovarian = tested on: OVCAR-3 ovarian
# LXFL 529 NSCLC = tested on: LXFL 529 NSCLC
# KM12 colon = tested on: KM12 colon
# A498 renal = tested on: A498 renal
# ACHN renal = tested on: ACHN renal
# DLD-1 colon = tested on: DLD-1 colon
# RPMI-8226 leukemia = tested on: RPMI-8226 leukemia
# TK-10 renal = tested on: TK-10 renal
# A549 NSCLC = tested on: A549 NSCLC
# SF-295 CNS = tested on: SF-295 CNS
# HL-60(TB) leukemia = tested on: HL-60(TB) leukemia
# SK-MEL-5 melanoma = tested on: SK-MEL-5 melanoma
# SK-OV-3 ovarian = tested on: SK-OV-3 ovarian
# XF 498 CNS = tested on: XF 498 CNS
# SF-539 CNS = tested on: SF-539 CNS
# 786-0 renal = tested on: 786-0 renal
# SW-620 colon = tested on: SW-620 colon
# M19-MEL melanoma = tested on: M19-MEL melanoma
# HCT-116 colon = tested on: HCT-116 colon
# CAKI-1 renal = tested on: CAKI-1 renal
# HCT-15 colon = tested on: HCT-15 colon
# M14 melanoma = tested on: M14 melanoma
# SK-MEL-2 melanoma = tested on: SK-MEL-2 melanoma
# UACC-257 melanoma = tested on: UACC-257 melanoma
# EKVX NSCLC = tested on: EKVX NSCLC
# K-562 leukemia = tested on: K-562 leukemia
# LOX IMVI melanoma = tested on: LOX IMVI melanoma
# CCRF-CEM leukemia = tested on: CCRF-CEM leukemia
# OVCAR-8 ovarian = tested on: OVCAR-8 ovarian
# COLO 205 colon = tested on: COLO 205 colon
# NCI-H23 lung = tested on: NCI-H23 lung
# SN12C renal = tested on: SN12C renal
# RXF-631 renal = tested on: RXF-631 renal
# DMS 114 small cell lung = tested on: DMS 114 small cell lung
# OVCAR-4 ovarian = tested on: OVCAR-4 ovarian
# SNB-75 CNS = tested on: SNB-75 CNS
# OVCAR-5 ovarian = tested on: OVCAR-5 ovarian
# SR leukemia = tested on: SR leukemia
# HOP-62 NSCLC = tested on: HOP-62 NSCLC
# MOLT-4 leukemia = tested on: MOLT-4 leukemia
# SNB-78 CNS = tested on: SNB-78 CNS
# HOP-92 NSCLC = tested on: HOP-92 NSCLC
# DMS 273 small cell lung = tested on: DMS 273 small cell lung
structure (smiles),measurement,setting,value
[C-]#[N+][C@@H]1C2[C@H](CC[C@@]1(C)O)C(=C)CC[C@@H]2[C@@]1(C)CC[C@H](Cl)C(C)(C)O1 (stereo not given in full),TGI,HT29 colon,29.8 µM
same,TGI,SK-MEL-28 melanoma,> 100 µM
same,TGI,KM20L2 colon,> 100 µM
same,TGI,IGROV1 ovarian,41.7 µM
same,TGI,HOP-18 NSCLC,21.9 µM
same,TGI,MALME-3M melanoma,48.1 µM
same,TGI,U251 CNS,36.3 µM
same,TGI,RXF 393 renal,35.4 µM
same,TGI,NCI-H460 lung,52.6 µM
same,TGI,NCI-H226 lung,20.8 µM
same,TGI,SNB-19 CNS,> 100 µM
same,TGI,SF-268 CNS,> 100 µM
same,TGI,UACC-62 melanoma,20.1 µM
same,TGI,UO-31 renal,7.17 µM
same,TGI,HCC-2998 colon,36.7 µM
same,TGI,NCI-H522 lung,22.4 µM
same,TGI,OVCAR-3 ovarian,9.97 µM
same,TGI,LXFL 529 NSCLC,> 100 µM
same,TGI,KM12 colon,25 µM
same,TGI,A498 renal,41.7 µM
same,TGI,ACHN renal,33.2 µM
same,TGI,DLD-1 colon,50.8 µM
same,TGI,RPMI-8226 leukemia,20.9 µM
same,TGI,TK-10 renal,84.2 µM
same,TGI,A549 NSCLC,77.6 µM
same,TGI,SF-295 CNS,28.3 µM
same,TGI,HL-60(TB) leukemia,5.66 µM
same,TGI,SK-MEL-5 melanoma,15.7 µM
same,TGI,SK-OV-3 ovarian,82.6 µM
same,TGI,XF 498 CNS,26.4 µM
same,TGI,SF-539 CNS,39.4 µM
same,TGI,786-0 renal,23.8 µM
same,TGI,SW-620 colon,31.1 µM
same,TGI,M19-MEL melanoma,21.9 µM
same,TGI,HCT-116 colon,12.8 µM
same,TGI,CAKI-1 renal,27.7 µM
same,TGI,HCT-15 colon,18 µM
same,TGI,M14 melanoma,12.6 µM
same,TGI,SK-MEL-2 melanoma,27.8 µM
same,TGI,UACC-257 melanoma,45.4 µM
same,TGI,EKVX NSCLC,60.2 µM
same,TGI,K-562 leukemia,13.5 µM
same,TGI,LOX IMVI melanoma,16.8 µM
same,TGI,CCRF-CEM leukemia,21.8 µM
same,TGI,OVCAR-8 ovarian,21 µM
same,TGI,COLO 205 colon,12.8 µM
same,TGI,NCI-H23 lung,53.4 µM
same,TGI,SN12C renal,26.3 µM
same,TGI,RXF-631 renal,> 100 µM
same,TGI,DMS 114 small cell lung,9.08 µM
same,TGI,OVCAR-4 ovarian,33.7 µM
same,TGI,SNB-75 CNS,> 100 µM
C=C1CCC2C(C)(CO)C(O)CCC2(C)C1CC(O)/C(=C/CO)C(=O)O (stereo not given),TGI,HT29 colon,> 100 µM
same,TGI,KM20L2 colon,> 100 µM
same,TGI,IGROV1 ovarian,> 100 µM
same,TGI,HOP-18 NSCLC,> 100 µM
same,TGI,OVCAR-5 ovarian,> 100 µM
same,TGI,MALME-3M melanoma,> 100 µM
same,TGI,U251 CNS,> 100 µM
same,TGI,RXF 393 renal,> 100 µM
same,TGI,NCI-H460 lung,> 100 µM
same,TGI,SNB-19 CNS,> 100 µM
same,TGI,SF-268 CNS,> 100 µM
same,TGI,UACC-62 melanoma,> 100 µM
same,TGI,UO-31 renal,> 100 µM
same,TGI,HCC-2998 colon,> 100 µM
same,TGI,NCI-H522 lung,> 100 µM
same,TGI,LXFL 529 NSCLC,> 100 µM
same,TGI,KM12 colon,> 100 µM
same,TGI,A498 renal,> 100 µM
same,TGI,ACHN renal,> 100 µM
same,TGI,DLD-1 colon,> 100 µM
same,TGI,RPMI-8226 leukemia,> 100 µM
same,TGI,TK-10 renal,> 100 µM
same,TGI,A549 NSCLC,> 100 µM
same,TGI,SF-295 CNS,> 100 µM
same,TGI,HL-60(TB) leukemia,> 100 µM
same,TGI,SK-MEL-5 melanoma,> 100 µM
same,TGI,SK-OV-3 ovarian,> 100 µM
same,TGI,SF-539 CNS,> 100 µM
same,TGI,786-0 renal,> 100 µM
same,TGI,SW-620 colon,> 100 µM
same,TGI,M19-MEL melanoma,> 100 µM
same,TGI,HCT-116 colon,> 100 µM
same,TGI,SR leukemia,> 100 µM
same,TGI,CAKI-1 renal,> 100 µM
same,TGI,HCT-15 colon,> 100 µM
same,TGI,HOP-62 NSCLC,> 100 µM
same,TGI,M14 melanoma,> 100 µM
same,TGI,MOLT-4 leukemia,> 100 µM
same,TGI,SK-MEL-2 melanoma,> 100 µM
same,TGI,UACC-257 melanoma,> 100 µM
same,TGI,K-562 leukemia,> 100 µM
same,TGI,LOX IMVI melanoma,> 100 µM
same,TGI,CCRF-CEM leukemia,> 100 µM
same,TGI,OVCAR-8 ovarian,> 100 µM
same,TGI,SNB-78 CNS,> 100 µM
same,TGI,COLO 205 colon,> 100 µM
same,TGI,SN12C renal,> 100 µM
same,TGI,HOP-92 NSCLC,> 100 µM
same,TGI,RXF-631 renal,> 100 µM
same,TGI,DMS 114 small cell lung,> 100 µM
same,TGI,OVCAR-4 ovarian,> 100 µM
same,TGI,DMS 273 small cell lung,> 100 µM
same,TGI,SNB-75 CNS,> 100 µM
